From patent US12050218B2, “Mitochondrial protease OMA1 as a marker for breast cancer” (NUtech Ventures, priority 2017, dated 2024)

Tests used:
[1] = tested on: oma1−/− mouse embryonic fibroblasts; assay: Cell viability / growth rate of MEF cells under glutamate pathway inhibition; assay type: cell-based; settings: 10 μM BPTES, low glucose or 10 mM galactose medium; oma1−/− vs wild type MEFs (FIG. 1B)
Description: FIG. 1A depicts extracellular acidification rates (ECAR) in wild type and oma1^−/− mouse embryonic fibroblasts under basal, FCCP-stimulated, and glycolysis-ablating (2-DG) conditions. Cells were cultured in the media containing 10 mM glucose. Data are shown as mean values of 3 independent experiments±S.E.M.; **p<0.01, by unpaired t-test. FIG. 1B depicts growth rate of wild type (WT) and oma1^−/− MEF cells under conditions of glutamate pathway inhibition by BPTES. Cells were cultured in the 10 mM galactose-containing medium with (left panel) or without (right panel) 10 μM BPTES for the indicated periods of time and the number of viable cells at each time point has been assessed. […] FIG. 1D depicts the prevalence of cells with protrusions was analyzed in WT and oma1^−/− MEF cells two days after re-seeding on 6-well plates after one week of growth at 100% confluence. […] Of the cells in the field of view, the number of cells with long lamellopodia and cells with normal lamellopodia were counted. […]
(§1) The wild type and oma1^−/− mouse embryonic fibroblasts (24, obtained from Dr. Carlos Lopez-Otin, University of Oviedo) were seeded into 12-well plates at the density of 4×10^4 cells per well. […] Every 24 hours cells, from one well per condition were trypsinized with 0.05% Trypsin (Life Technologies), washed with Ca-, Mg-PBS, resuspended and counted in Countess Automated Cell Counter (Life Technologies). […]

[2] = tested on: OMA1-depleted 21MT-1 cells; assay: Growth rate of control and OMA1-depleted 21MT-1 cells under glutamate pathway inhibition; assay type: cell-based, human; settings: 10 μM BPTES, 10 mM galactose medium; OMA1 KD vs control 21MT-1 cells (FIG. 3C)
Description: FIG. 3A depicts a representative oxygen consumption rate (OCR) graph in control and OMA1-depleted 21MT-1 cells under basal, oligomycin A (OLA), FCCP, and Antimycin A/Rotenone (AA+Rot.) stimulated conditions. Cells were cultured in the medium containing 10 mM galactose. FIG. 3B depicts respiratory control ratios in control and OMA1 KD 21MT-1 cells cultured in 10 mM galactose medium. Data represent the mean±S.E.M. (n=3 biological replicates); *p<0.05, by t-test. FIG. 3C depicts the growth rate of control and OMA1-depleted 21MT-1 cells under conditions of glutamate pathway inhibition. Cells were cultured in the 10 mM galactose-containing medium in the presence of 10 μM BPTES for the indicated periods of time and the number of viable cells at each time point has been assessed. Data represent the mean±S.D. (n=3 biological replicates); *p<0.05, ***p<0.001, by unpaired t-test.
as §1

For `O=C(Cc1ccccc1)Nc1nnc(CCSCCc2nnc(NC(=O)Cc3ccccc3)s2)s1` [BPTES], the “proliferation of oma1−/− MEFs compared with wild type cells” value [1] was “proliferated at much slower rates than wild type cells” and the “sensitivity of OMA1-depleted 21MT-1 cells to glutaminase inhibitor” value [2] was “marked increase in sensitivity”.
